The source made the active and inactive calls. The rule behind the calls is not given here.
Key:
KB = assay: Cytotoxicity against human KB cells; format: functional, cell-based
[1] = Inhibition of tubulin microtubule disassembly

CC(C)CC[C@H](C[C@]12C[C@H](CCC(C)C)C(C)(C)[C@](CCC(C)C)(C(=O)C(C(=O)c3ccc(O)c(O)c3)=C1O)C2=O)C(C)C [OCTAHYDROXANTHOCHYMOL]
IC50 (KB): 20 µM
Activity [1]: inactive

CC(=O)O[C@H]1C(=O)[C@@]2(C)[C@H]([C@H](OC(=O)c3ccccc3)[C@]3(O)C[C@H](OC(=O)[C@H](O)[C@@H](NC(=O)c4ccccc4)c4ccccc4)C(C)=C1C3(C)C)[C@]1(OC(C)=O)CO[C@@H]1C[C@@H]2O [PACLITAXEL]
IC50 [1]: 0.5 µM

Source: ChEMBL document CHEMBL1155563, “Structure-activity relationship of polyisoprenyl benzophenones from Garcinia pyrifera on the tubulin/microtubule system” (J Nat Prod, 2000)
